According to patent US7357913B2, “Methods for detecting, prognosing, or monitoring a disorder by comparing relative flux rates of two or more biological molecules in vivo” (The Regents of the University of California, priority 2003, dated 2008):
“Also recorded” adds a separate entry of the source.

Assays:
[1] = Body water 2H2O enrichment in rats; assay type: in vivo, rat; conditions: rats maintained on 4% 2H2O in drinking water after i.p. priming bolus
Protocol: ^2H2O labeling protocols in rodents consisted of an initial intraperitoneal priming bolus to 2.0-2.5% body water enrichment. The priming dose of ^2H2O (100%) was given to the rats (e.g., for a 225 g rat, 2% of 135 ml, or 2.7 ml, given in divided doses 1 hour apart) based on estimated 60% body weight as water, followed by administration of 4% ^2H2O in the drinking water. The 4% enrichment of ^2H2O in drinking water was chosen as a convenient dose that produces sufficient enrichments in biosynthetic products of interest and has no known toxicities. ^2H2O (70% and 100%) was purchased commercially from Cambridge Isotopes (Andover, Mass.). Drinking was ad-libitum. Rats were sacrificed by CO2 asphyxiation.
Body water ^2H2O enrichments were measured serially. The steady state body ^2H2O enrichments attained in rats maintained on 4% ^2H2O in drinking water were approximately 3.0% and were stable over time in individual animals.

[2] = human, in vivo, po
Protocol: (§1) The ^2H2O was administered orally. The initial priming dose was carried out in the General Clinical Research Center (GCRC) of SF General Hospital. Subjects received a total of 350-400 mL of ^2H2O in the GCRC, given as divided doses over the course of 18-21 hours (70 mL of 70% ^2H2O, given every 3-4 hours), to achieve about 1.0% enrichment in the body water pool. The ^2H2O was purchased from-Isotec, Inc. (Miamisburgh, Ohio) and dispensed in sterile containers. Subjects then took 50 mL of 70% ^2H2O three times a day for 5 days, then 35-50 mL twice-a-day for the remainder of the 8-10 week labeling protocol. This protocol achieves near-plateau body ^2H2O enrichments (1.5-2.0%, see below) within 5-7 days in most subjects and was well-tolerated. Subjects received the ^2H2O as individual aliquots (35-50 mL of 70% ^2H2O) in plastic vials, which were stored in the refrigerator.
^2H2O enrichments in body water were measured from plasma or urine. A 15-20 μL sample was reacted in an evacuated GC vial with calcium carbide to produce acetylene. The acetylene gas was then transferred with a syringe and injected into an evacuated GC vial containing 10% bromine in carbon tetrachloride and incubated at room temperature for 2 hours to produce tetrabromoethane. […] The tetrabromoethane, containing hydrogen atoms from body H2O, was then analyzed by GC/MS.

[3] = Tolerability of oral 2H2O labeling protocol in human subjects; assay type: in vivo; conditions: 8-10 week labeling protocol
Protocol: as §1

[4] = Food intake and body weight under 2H2O treatment in mice; assay type: in vivo, mouse; conditions: ca. 2% body water enrichment then 4% 2H2O drinking water, 21 days
Protocol: Mice were injected with ^2H2O (deuterated water) at a dose to achieve approximately 2% enrichment in the body water pool. The normal drinking water was then replaced with water enriched to 4% ^2H2O. ^2H2O treatment had no impact on food intake or body weight. Twenty-one days following the start of ^2H2O administration, mice were fasted for four hours, anesthetized with isoflurane and exsanguinated via heart puncture. When possible, urine was collected at the same time.

colonocytes = experiment: Colonocyte proliferation (de novo DNA synthesis, 2H2O labeling), gemcitabine study; assay type: in vivo, mouse; conditions: male balb/C nu/nu mice with SW1573; for colon cell (colonocyte) proliferation: increasing doses every other day, 5 days
Protocol: (§2) Male balb/C nu/nu mice were implanted subcutaneously with non-small cell lung carcinoma cells (SW1573) cells in matrigel. Mice were labeled with 2H2O and treated with increasing doses of gemcitabine (Gem), administered every other day (as shown in FIG. 9). After 5 days, tumor, colon and bone marrow were removed using techniques well known in the art, and as described, supra. Cell proliferation was measured as described, supra. […] De novo DNA synthesis from all three cell types was measured concurrently using the methods of the present invention. Briefly, heavy water (^2H2O) is administered to living organisms (8% ^2H2O in drinking water). DNA is isolated, hydrolyzed to free dNs, and deuterium incorporation into the deoxyribose (dR) moiety of purine and pyrimidine dNs is measured by gas chromatography/mass spectrometry (GC/MS) as described, supra.

[5] = system: EMT7 mouse mammary carcinoma cells; experiment: Tumor cell proliferation in EMT7 tumor-bearing mice, Gem and HU; assay type: in vivo; conditions: female balb/C nu/nu mice, EMT7 tumors; Gem 125 mg/kg every other day, HU 500 mg/kg daily; 5 days
Protocol: Female balb/C nu/nu mice were implanted subcutaneously with approximately 106 EMT7 mouse mammary carcinoma cells in matrigel. Tumors were allowed to reach ca.1500 mm^3 in size. Mice were labeled with ^2H2O and treated with either 125mg/kg gemzar (gemcitabine or Gem) or 500 mg/kg hydroxyurea (HU). Gem was administered every other day; HU daily; and control saline daily. At the end of 5 days tumors were removed and cell proliferation was measured as described, supra.

bone marrow cells = experiment: Bone marrow cell proliferation (de novo DNA synthesis, 2H2O labeling), gemcitabine study; assay type: in vivo, mouse; conditions: male balb/C nu/nu mice with SW1573, increasing doses every other day, 5 days
Protocol: as §2

[6] = system: non-small cell lung carcinoma cells (SW1573); experiment: Tumor cell proliferation (de novo DNA synthesis, 2H2O labeling) in SW1573 xenograft mice, gemcitabine; assay type: in vivo, human; conditions: male balb/C nu/nu mice, SW1573 s.c. in matrigel, increasing doses every other day, 5 days
Protocol: as §2

liver collagen = experiment: Liver collagen synthesis (2H into hydroxyproline) after CCl4; assay type: in vivo, mouse
Protocol: Liver collagen synthesis was measured concurrently (i.e., simultaneously) with de novo DNA synthesis in the same CCl4-treated SJV mice. Collagen was purified from 10 mg of fresh total liver homogenate as follows: using a Polytron homogenizer, collagen was isolated from soft tissue by homogenizing in 0.5 mL 100 mM NaOH. Under these conditions, collagen remains insoluble while most other proteins are readily dissolved. After centrifugation at 7,000 ×g for 10 minutes at 4° C., the supernatant was discarded. The pellet was washed briefly with 2 mL H2O and solubilized in reducing Laemmli sample buffer (Bio-Rad, Hercules, Calif.) after boiling for 3 minutes. The dissolved material was size-fractionated by SDS-PAGE. […]
Acetone precipitated total liver protein and PVDF-bound collagen were hydrolyzed by treating with 6 N HCl, 16 hours at 110° C. […] Hydroxyproline was analyzed on a DB225 GC column, starting temp 100° C. increasing 10° C./min to 220° C. with selected ion monitoring of m/z 352,353.
Hydroxyproline is a molecule of interest and is measured as OH-proline, the molecule being essentially unique to collagen. Because of this fact, total liver protein hydrolysate can be derivatized and the ^2H enrichment of hydroxyproline determined by GC/MS as described, supra. […]

total liver cell = experiment: Total liver cell proliferation (DNA synthesis) after CCl4; assay type: in vivo, mouse
Protocol: SVJ mice were injected 2× weekly with 1.0 ml/kg or 0.25 mL/kg of CCl4 or vehicle for up to 4 weeks Cell proliferation was measured at 2, 7, 14, 21 and 28 days of ^2H2O administration and CCl4 treatment using the methods of the present invention as described, supra.

adipose tissue = experiment: Adipose tissue dynamics (TG synthesis, de novo lipogenesis, adipocyte proliferation) in leptin treated ob/ob mice; assay type: in vivo, mouse
Protocol: Four week old, female, C57/b16j mice (Jackson Labs Bar Harbor, […].) were divided into four groups: C57/b16j^+/? controls (con), ad libitum fed C57/b16j^lep-/lep-(ob/ob), leptin treated ob/ob (ob-lep) and food restricted ob/ob (ob-r). All mice were housed individually in hanging wire cages and given free access to water. The light cycle was on from noon to midnight and mean temperature was 73° F. Diets were from a purified formula with 1 g “dustless” pellets used for the ad lib fed animals and 45 mg for the food restricted ob/ob mice (Bio Serv, Frenchtown, N.J.). Mice were given 3 days to acclimate to the environment, during which time some weight loss was observed. After the acclimation period, food restriction or leptin treatment was begun and food intake and body weights were measured periodically. […]
The percent of TG newly synthesized during the labeling period was calculated based on the precursor-product relationship, as described supra, using body water enrichment to estimate the maximal or asymptotic enrichment in TG-glycerol. The relationship between body water and the maximal TG-glycerol enrichment has been determined through combinatorial analysis (mass isotopomer distribution analysis MIDA) and by measurement of 100% replaced TG pools after long-term ^2H2O labeling. […] The fraction of TG which is newly synthesized is then calculated as: Fractional synthesis (f)=EM1/A1^∞. […]

Molecule: [2H]O[2H] [^2H2O]
- steady state body 2H2O enrichment [1]: approximately 3.0%
- near-plateau body 2H2O enrichment [2]: 1.5-2.0%
- time to near-plateau body 2H2O enrichment [2]: 5 to 7 days
- tolerability of 2H2O protocol [3]: well-tolerated
- impact on food intake or body weight [4]: no impact

Molecule: Nc1ccn([C@@H]2O[C@H](CO)[C@@H](O)C2(F)F)c(=O)n1 [Gem, gemcitabine]
- colon cell (colonocyte) proliferation (colonocytes): relatively little effect
- colon cell (colonocyte) proliferation (colonocytes; listed as gemcitabine): little inhibition
- colonocyte proliferation at the lower experimental doses (colonocytes; lower experimental doses): may have a stimulatory effect
- tumor cell proliferation relative to saline control [5]: caused reductions; also recorded: decreased
- bone marrow cell proliferation (bone marrow cells): inhibits
- bone marrow cell proliferation (bone marrow cells; listed as gemcitabine): inhibited in tumor and bone marrow cells in a dose-response manner
- tumor cell proliferation [6]: inhibits
- tumor cell proliferation ([6]; listed as gemcitabine): inhibited in tumor and bone marrow cells in a dose-response manner

Molecule: NC(=O)NO [HU, hydroxyurea]
- tumor cell proliferation relative to saline control [5]: caused reductions; also recorded: decreased

Molecule: ClC(Cl)(Cl)Cl [CCl4, carbon tetrachloride]
- liver collagen synthesis relative to vehicle control, high dose (liver collagen; high dose of CCl4 (1.0 ml/kg 2x weekly)): significant collagen synthesis occurred only at the highest dose; also recorded: increased
- liver collagen synthesis relative to vehicle control, low dose (liver collagen; low dose of CCl4 (0.25 mL/kg 2x weekly)): no effect
- new liver cells present (total liver cell; after 4 weeks of repeated CCl4 dosing): ~100%
- total liver cell proliferation relative to vehicle control (total liver cell; mice injected 2x weekly, both doses (1.0 ml/kg and 0.25 mL/kg), up to 4 weeks): significantly increased; also recorded: significant cell proliferation occurred at both doses

B1: leptin: murine leptin (Amgen) infused subcutaneously by osmotic pump (protein, UniProt P41160 22-167, looked up)
Leptin: VPIQKVQDDTKTLIKTIVTRINDISHTQSVSAKQRVTGLDFIPGLHPILSLSKMDQTLAVYQQVLTSLPSQNVLQIANDLENLRDLLHLLAFSKSCSLPQTSGLQKPESLDGVLEASLYSTEVVALSRLQGSLQDILQQLDVSPEC
- TG retained (body fat balance) (adipose tissue; leptin treated ob/ob mice): body fat was lost
- effect on de novo lipogenesis, adipogenesis and triglyceride synthesis in adipose tissue (adipose tissue; ob/ob mice, murine leptin 2 μg/day s.c. osmotic pump, 21 days 2H2O): influenced all three pathways similarly
